Measured values as given in patent publication US9340590B2 (priority 2011, dated 2016).
Positions of bridges follow the written chain, without caps; N, C: chain ends. Non-standard residues stand in square brackets, D forms with d. Residues, ends and D or L forms follow the SMILES beside them. Cit = NC(=O)NCCC[C@H](N)C(=O)O

How the values were obtained:
hNav1.5 = hNav1.5 (Homo sapiens, UniProt Q14524); experiment: cell-based
hNav1.7 = hNav1.7 (Homo sapiens, UniProt Q15858); experiment: cell-based; conditions: Nav1.7 Use IC50
Sequence of hNav1.7 (Q15858 whole entry, looked up): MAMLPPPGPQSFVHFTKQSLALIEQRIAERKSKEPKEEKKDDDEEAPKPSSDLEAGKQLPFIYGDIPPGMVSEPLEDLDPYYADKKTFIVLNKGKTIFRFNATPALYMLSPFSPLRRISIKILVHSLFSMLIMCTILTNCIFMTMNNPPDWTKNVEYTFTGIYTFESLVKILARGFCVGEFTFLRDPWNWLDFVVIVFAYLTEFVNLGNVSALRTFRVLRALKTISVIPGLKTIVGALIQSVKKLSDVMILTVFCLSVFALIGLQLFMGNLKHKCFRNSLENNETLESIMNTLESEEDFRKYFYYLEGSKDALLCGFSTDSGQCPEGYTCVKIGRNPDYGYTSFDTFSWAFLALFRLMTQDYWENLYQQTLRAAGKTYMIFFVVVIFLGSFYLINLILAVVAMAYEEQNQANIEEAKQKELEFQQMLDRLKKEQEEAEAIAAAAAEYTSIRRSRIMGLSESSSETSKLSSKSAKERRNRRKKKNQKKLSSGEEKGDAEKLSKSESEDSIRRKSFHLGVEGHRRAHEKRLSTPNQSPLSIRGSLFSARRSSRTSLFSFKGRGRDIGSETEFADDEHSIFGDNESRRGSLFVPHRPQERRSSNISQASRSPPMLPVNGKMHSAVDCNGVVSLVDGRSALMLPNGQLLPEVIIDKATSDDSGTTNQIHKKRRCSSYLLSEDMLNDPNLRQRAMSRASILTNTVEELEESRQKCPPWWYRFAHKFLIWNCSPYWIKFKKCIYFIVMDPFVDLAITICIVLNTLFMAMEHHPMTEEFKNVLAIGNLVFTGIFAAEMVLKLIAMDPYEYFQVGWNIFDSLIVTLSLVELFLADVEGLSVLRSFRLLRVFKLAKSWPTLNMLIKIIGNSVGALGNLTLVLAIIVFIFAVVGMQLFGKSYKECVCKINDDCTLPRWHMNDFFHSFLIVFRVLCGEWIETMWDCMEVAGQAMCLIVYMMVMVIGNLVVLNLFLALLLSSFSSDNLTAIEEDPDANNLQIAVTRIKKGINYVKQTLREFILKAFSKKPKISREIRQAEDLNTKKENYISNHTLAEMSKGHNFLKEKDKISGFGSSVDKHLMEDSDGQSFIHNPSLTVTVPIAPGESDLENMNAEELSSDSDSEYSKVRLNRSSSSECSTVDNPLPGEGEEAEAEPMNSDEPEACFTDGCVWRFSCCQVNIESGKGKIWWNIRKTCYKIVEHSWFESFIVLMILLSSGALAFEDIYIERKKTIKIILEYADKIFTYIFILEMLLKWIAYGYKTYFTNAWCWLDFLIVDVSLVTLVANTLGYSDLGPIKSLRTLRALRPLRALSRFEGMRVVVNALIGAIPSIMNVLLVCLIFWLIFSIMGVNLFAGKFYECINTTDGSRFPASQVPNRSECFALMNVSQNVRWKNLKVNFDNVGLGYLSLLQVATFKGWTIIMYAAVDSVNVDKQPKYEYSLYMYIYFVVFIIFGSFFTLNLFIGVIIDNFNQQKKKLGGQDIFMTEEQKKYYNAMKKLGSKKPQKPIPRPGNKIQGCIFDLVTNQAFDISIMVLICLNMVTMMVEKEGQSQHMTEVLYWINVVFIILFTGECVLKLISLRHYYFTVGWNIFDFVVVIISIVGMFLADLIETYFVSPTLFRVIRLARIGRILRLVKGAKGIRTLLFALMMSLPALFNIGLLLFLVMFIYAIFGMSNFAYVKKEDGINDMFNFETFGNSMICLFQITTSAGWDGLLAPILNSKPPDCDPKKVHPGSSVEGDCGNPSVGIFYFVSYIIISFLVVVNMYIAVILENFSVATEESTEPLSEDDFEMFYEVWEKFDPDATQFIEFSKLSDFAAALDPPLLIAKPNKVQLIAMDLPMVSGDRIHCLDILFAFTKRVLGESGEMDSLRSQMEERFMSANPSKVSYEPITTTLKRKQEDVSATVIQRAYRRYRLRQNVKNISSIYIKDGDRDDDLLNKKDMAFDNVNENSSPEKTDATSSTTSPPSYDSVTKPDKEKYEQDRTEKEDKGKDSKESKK

Sequence of hNav1.5 (Q14524 whole entry, looked up): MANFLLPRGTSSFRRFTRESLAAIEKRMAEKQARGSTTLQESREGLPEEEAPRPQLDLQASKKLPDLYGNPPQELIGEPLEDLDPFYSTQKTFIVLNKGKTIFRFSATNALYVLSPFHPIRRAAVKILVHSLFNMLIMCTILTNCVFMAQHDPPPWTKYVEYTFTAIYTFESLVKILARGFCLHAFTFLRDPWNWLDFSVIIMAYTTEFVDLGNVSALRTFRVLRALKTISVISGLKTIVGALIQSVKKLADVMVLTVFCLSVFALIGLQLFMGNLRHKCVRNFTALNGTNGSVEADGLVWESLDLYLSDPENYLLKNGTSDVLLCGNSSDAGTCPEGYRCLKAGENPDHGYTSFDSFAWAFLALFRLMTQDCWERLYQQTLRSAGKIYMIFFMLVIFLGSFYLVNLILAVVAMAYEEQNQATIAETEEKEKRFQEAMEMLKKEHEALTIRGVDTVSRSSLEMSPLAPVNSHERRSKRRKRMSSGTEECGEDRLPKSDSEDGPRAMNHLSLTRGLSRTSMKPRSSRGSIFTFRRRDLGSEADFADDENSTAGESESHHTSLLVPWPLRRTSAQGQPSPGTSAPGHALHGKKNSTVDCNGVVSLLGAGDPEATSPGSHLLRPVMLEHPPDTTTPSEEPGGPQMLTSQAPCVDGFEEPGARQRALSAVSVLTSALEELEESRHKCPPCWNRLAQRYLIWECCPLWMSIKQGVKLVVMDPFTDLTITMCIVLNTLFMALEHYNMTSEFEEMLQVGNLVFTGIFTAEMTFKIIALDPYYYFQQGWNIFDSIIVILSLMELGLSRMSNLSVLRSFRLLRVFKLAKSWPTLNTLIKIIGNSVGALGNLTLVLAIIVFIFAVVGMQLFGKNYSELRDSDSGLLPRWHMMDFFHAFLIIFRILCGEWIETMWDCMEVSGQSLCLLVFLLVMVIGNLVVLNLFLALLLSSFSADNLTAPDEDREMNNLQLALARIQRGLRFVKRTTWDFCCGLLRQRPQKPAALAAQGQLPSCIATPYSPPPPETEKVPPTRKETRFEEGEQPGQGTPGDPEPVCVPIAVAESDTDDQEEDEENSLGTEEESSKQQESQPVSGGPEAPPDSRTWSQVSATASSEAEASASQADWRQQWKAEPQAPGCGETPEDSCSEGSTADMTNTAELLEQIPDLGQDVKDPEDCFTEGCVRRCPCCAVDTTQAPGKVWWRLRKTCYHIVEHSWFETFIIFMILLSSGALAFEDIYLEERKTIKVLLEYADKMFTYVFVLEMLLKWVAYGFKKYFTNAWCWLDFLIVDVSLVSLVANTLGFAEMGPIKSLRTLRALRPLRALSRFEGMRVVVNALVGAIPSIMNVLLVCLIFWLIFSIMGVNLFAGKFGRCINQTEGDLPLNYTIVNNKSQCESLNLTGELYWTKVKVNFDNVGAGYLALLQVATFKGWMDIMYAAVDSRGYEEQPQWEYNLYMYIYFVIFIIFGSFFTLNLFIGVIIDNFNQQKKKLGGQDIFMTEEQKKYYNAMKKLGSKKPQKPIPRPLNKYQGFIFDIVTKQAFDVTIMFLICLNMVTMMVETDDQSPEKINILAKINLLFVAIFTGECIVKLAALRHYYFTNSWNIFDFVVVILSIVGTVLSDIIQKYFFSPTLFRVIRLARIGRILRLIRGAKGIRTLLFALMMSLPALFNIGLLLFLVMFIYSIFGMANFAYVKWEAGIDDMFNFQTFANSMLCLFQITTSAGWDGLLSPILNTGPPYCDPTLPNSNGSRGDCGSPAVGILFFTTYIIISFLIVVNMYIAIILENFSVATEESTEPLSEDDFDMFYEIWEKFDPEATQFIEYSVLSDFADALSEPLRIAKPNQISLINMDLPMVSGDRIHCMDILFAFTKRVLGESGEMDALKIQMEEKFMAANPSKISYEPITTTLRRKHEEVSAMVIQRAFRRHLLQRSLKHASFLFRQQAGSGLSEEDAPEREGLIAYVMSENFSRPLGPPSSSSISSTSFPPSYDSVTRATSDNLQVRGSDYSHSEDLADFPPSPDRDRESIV

| Structure (SMILES) | IC50 (hNav1.5) [nM] | IC50 (hNav1.7) [nM] |
| --- | --- | --- |
| CC[C@H](C)[C@@H]1NC(=O)[C@@H]2CSSC[C@@H]3NC(=O)[C@H](C(C)C)NC(=O)[C@H](CC(C)C)NC(=O)[C@H](CC(N)=O)NC(=O)[C@@H]4CCCN4C(=O)[C@H](CCCNC(=N)N)NC(=O)[C@H](CSSC[C@H](NC(=O)[C@@H](N)CC(=O)O)C(=O)N[C@@H](CC(C)C)C(=O)NCC(=O)N[C@@H](CO)C(=O)N[C@@H](Cc4ccccc4)C(=O)N[C@@H](CCCNC(=N)N)C(=O)N[C@@H](CCCCN)C(=O)N2)NC(=O)[C@H](CSSC[C@@H](C(=O)N[C@@H](CCCCN)C(=O)N[C@@H](Cc2ccc(O)cc2)C(=O)N[C@H](C(=O)N[C@@H](Cc2ccccc2)C(N)=O)C(C)C)NC(=O)[C@H](Cc2c[nH]c4ccccc24)NC(=O)[C@H](CCCCN)NC(=O)[C@H](Cc2c[nH]cn2)NC(=O)[C@H]([C@@H](C)O)NC(=O)[C@H](CCCNC(=N)N)NC(=O)[C@H](CO)NC3=O)NC(=O)[C@H](CCCCN)NC(=O)[C@H](CC(=O)O)NC(=O)[C@H](CC(N)=O)NC(=O)[C@H](CC(=O)O)NC(=O)[C@@H]2CCCN2C1=O [[Ser5;Phe6]GpTx-1(1-34)] (H-DCLGSFRKCIPDNDKCCRPNLVCSRTHKWCKYVF-NH2; disulfide 2-17, 9-23, 16-30) | > 10000 | 24 |
| CC[C@H](C)[C@@H]1NC(=O)[C@@H]2CSSC[C@@H]3NC(=O)[C@H](C(C)C)NC(=O)[C@H](CC(C)C)NC(=O)[C@H](CC(N)=O)NC(=O)[C@@H]4CCCN4C(=O)[C@H](CCCNC(=N)N)NC(=O)[C@H](CSSC[C@H](NC(=O)[C@@H](N)CC(=O)O)C(=O)N[C@@H](CC(C)C)C(=O)NCC(=O)N[C@@H](C(C)(C)C)C(=O)N[C@@H](CC(C)C)C(=O)N[C@@H](CCCNC(=N)N)C(=O)N[C@@H](CCCCN)C(=O)N2)NC(=O)[C@H](CSSC[C@@H](C(=O)N[C@@H](CCCCN)C(=O)N[C@@H](Cc2ccc(O)cc2)C(=O)N[C@H](C(=O)N[C@@H](Cc2ccccc2)C(N)=O)C(C)C)NC(=O)[C@H](Cc2c[nH]c4ccccc24)NC(=O)[C@H](CCCCN)NC(=O)[C@H](Cc2c[nH]cn2)NC(=O)[C@H]([C@@H](C)O)NC(=O)[C@H](CCCNC(=N)N)NC(=O)[C@H](CO)NC3=O)NC(=O)[C@H](CCCCN)NC(=O)[C@H](CC(=O)O)NC(=O)[C@H](CC(N)=O)NC(=O)[C@H](CC(=O)O)NC(=O)[C@@H]2CCCN2C1=O [[Tle5;Leu6]GpTx-1(1-34)] | > 10000 | 17 |
| CC[C@H](C)[C@@H]1NC(=O)[C@@H]2CSSC[C@@H]3NC(=O)[C@H](Cc4c[nH]c5ccccc45)NC(=O)[C@H](CC(C)C)NC(=O)[C@H](CC(N)=O)NC(=O)[C@@H]4CCCN4C(=O)[C@H](CCCNC(=N)N)NC(=O)[C@H](CSSC[C@H](NC(=O)[C@@H](N)CC(=O)O)C(=O)N[C@@H](CC(C)C)C(=O)NCC(=O)N[C@@H](Cc4ccccc4)C(=O)N[C@@H](CCSC)C(=O)N[C@@H](CCCNC(=N)N)C(=O)N[C@@H](CCCCN)C(=O)N2)NC(=O)[C@H](CSSC[C@@H](C(=O)N[C@@H](CCCCN)C(=O)N[C@@H](Cc2ccc(O)cc2)C(=O)N[C@H](C(=O)N[C@@H](Cc2ccccc2)C(N)=O)C(C)C)NC(=O)[C@H](Cc2c[nH]c4ccccc24)NC(=O)[C@H](CCCCN)NC(=O)[C@H](Cc2cnc[nH]2)NC(=O)[C@H]([C@@H](C)O)NC(=O)[C@H](CCCNC(=N)N)NC(=O)[C@H](CO)NC3=O)NC(=O)[C@H](CCCCN)NC(=O)[C@H](CC(=O)O)NC(=O)[C@H](CC(N)=O)NC(=O)[C@H](CC(=O)O)NC(=O)[C@@H]2CCCN2C1=O [[Trp22]GpTx-1(1-34)] (H-DCLGFMRKCIPDNDKCCRPNLWCSRTHKWCKYVF-NH2; disulfide 2-17, 9-23, 16-30) | 4780 | 39 |
| CC[C@H](C)[C@@H]1NC(=O)[C@@H]2CSSC[C@@H]3NC(=O)[C@H](C(C)C)NC(=O)[C@H](CC(C)C)NC(=O)[C@H](CC(N)=O)NC(=O)[C@@H]4CCCN4C(=O)[C@H](CCCNC(=N)N)NC(=O)[C@H](CSSC[C@H](NC(=O)[C@@H](N)CC(=O)O)C(=O)N[C@@H](CC(C)C)C(=O)NCC(=O)N[C@@H](Cc4ccccc4)C(=O)N[C@@H](CCSC)C(=O)N[C@@H](CCCNC(=N)N)C(=O)N[C@@H](CCCCN)C(=O)N2)NC(=O)[C@H](CSSC[C@@H](C(=O)N[C@@H](CCCCN)C(=O)N[C@@H](Cc2ccc(O)cc2)C(=O)N[C@@H](Cc2c[nH]c4ccccc24)C(=O)N[C@@H](Cc2ccccc2)C(N)=O)NC(=O)[C@H](Cc2c[nH]c4ccccc24)NC(=O)[C@H](CCCCN)NC(=O)[C@H](Cc2c[nH]cn2)NC(=O)[C@H]([C@@H](C)O)NC(=O)[C@H](CCCNC(=N)N)NC(=O)[C@H](CO)NC3=O)NC(=O)[C@H](CCCCN)NC(=O)[C@H](CC(=O)O)NC(=O)[C@H](CC(N)=O)NC(=O)[C@H](CC(=O)O)NC(=O)[C@@H]2CCCN2C1=O [[Trp33]GpTx-1(1-34)] (H-DCLGFMRKCIPDNDKCCRPNLVCSRTHKWCKYWF-NH2; disulfide 2-17, 9-23, 16-30) | 2350 | 18 |
| CC[C@H](C)[C@@H]1NC(=O)[C@@H]2CSSC[C@@H]3NC(=O)[C@H](Cc4ccc(O)cc4)NC(=O)[C@H](CC(C)C)NC(=O)[C@H](CC(N)=O)NC(=O)[C@@H]4CCCN4C(=O)[C@H](CCCNC(=N)N)NC(=O)[C@H](CSSC[C@H](NC(=O)[C@@H](N)CC(=O)O)C(=O)N[C@@H](CC(C)C)C(=O)NCC(=O)N[C@@H](Cc4ccccc4)C(=O)N[C@@H](CCSC)C(=O)N[C@@H](CCCNC(=N)N)C(=O)N[C@@H](CCCCN)C(=O)N2)NC(=O)[C@H](CSSC[C@@H](C(=O)N[C@@H](CCCCN)C(=O)N[C@@H](Cc2ccc(O)cc2)C(=O)N[C@H](C(=O)N[C@@H](Cc2ccccc2)C(N)=O)C(C)C)NC(=O)[C@H](Cc2c[nH]c4ccccc24)NC(=O)[C@H](CCCCN)NC(=O)[C@H](Cc2c[nH]cn2)NC(=O)[C@H]([C@@H](C)O)NC(=O)[C@H](CCCNC(=N)N)NC(=O)[C@H](CO)NC3=O)NC(=O)[C@H](CCCCN)NC(=O)[C@H](CC(=O)O)NC(=O)[C@H](CC(N)=O)NC(=O)[C@H](CC(=O)O)NC(=O)[C@@H]2CCCN2C1=O [[Tyr22]GpTx-1(1-34)] (H-DCLGFMRKCIPDNDKCCRPNLYCSRTHKWCKYVF-NH2; disulfide 2-17, 9-23, 16-30) | > 10000 | 18 |
| CSCC[C@@H]1NC(=O)[C@H](C(C)C)NC(=O)CNC(=O)[C@H](CC(C)C)NC(=O)[C@@H](NC(=O)[C@@H](N)CC(=O)O)CSSC[C@@H]2NC(=O)[C@@H]3CSSC[C@@H](C(=O)N[C@@H](CCCCN)C(=O)N[C@@H](Cc4ccc(O)cc4)C(=O)N[C@H](C(=O)N[C@@H](Cc4ccccc4)C(N)=O)C(C)C)NC(=O)[C@H](Cc4c[nH]c5ccccc45)NC(=O)[C@H](CCCCN)NC(=O)[C@H](Cc4c[nH]cn4)NC(=O)[C@H]([C@@H](C)O)NC(=O)[C@H](CCCNC(=N)N)NC(=O)[C@H](CO)NC(=O)[C@H](CSSC[C@H](NC(=O)[C@H](CCCCN)NC(=O)[C@H](CCCNC(=N)N)NC1=O)C(=O)N[C@@H](CC(=O)O)C(=O)N1CCC[C@H]1C(=O)N[C@@H](CCC(=O)O)C(=O)N[C@@H](CC(N)=O)C(=O)N[C@@H](CC(=O)O)C(=O)N[C@@H](CCCCN)C(=O)N3)NC(=O)[C@H](C(C)C)NC(=O)[C@H](CC(C)C)NC(=O)[C@H](CC(N)=O)NC(=O)[C@@H]1CCCN1C(=O)[C@H](CCCNC(=N)N)NC2=O [[Val5;Asp10;Glu12]GpTx-1(1-34)] (H-DCLGVMRKCDPENDKCCRPNLVCSRTHKWCKYVF-NH2; disulfide 2-17, 9-23, 16-30) | > 10000 | 116 |
| CSCC[C@@H]1NC(=O)[C@H](C(C)C)NC(=O)CNC(=O)[C@H](CC(C)C)NC(=O)[C@@H](NC(=O)[C@@H](N)CC(=O)O)CSSC[C@@H]2NC(=O)[C@@H]3CSSC[C@@H](C(=O)N[C@@H](CCCCN)C(=O)N[C@@H](Cc4ccc(O)cc4)C(=O)N[C@H](C(=O)N[C@@H](Cc4ccccc4)C(N)=O)C(C)C)NC(=O)[C@H](Cc4c[nH]c5ccccc45)NC(=O)[C@H](CCCCN)NC(=O)[C@H](Cc4c[nH]cn4)NC(=O)[C@H]([C@@H](C)O)NC(=O)[C@H](CCCNC(=N)N)NC(=O)[C@H](CO)NC(=O)[C@H](CSSC[C@H](NC(=O)[C@H](CCCCN)NC(=O)[C@H](CCCNC(=N)N)NC1=O)C(=O)N[C@@H](CC(=O)O)C(=O)N1CCC[C@H]1C(=O)N[C@@H](CC(=O)O)C(=O)N[C@@H](CC(N)=O)C(=O)N[C@@H](CC(=O)O)C(=O)N[C@@H](CCCCN)C(=O)N3)NC(=O)[C@H](C(C)C)NC(=O)[C@H](CC(C)C)NC(=O)[C@H](CC(N)=O)NC(=O)[C@@H]1CCCN1C(=O)[C@H](CCCNC(=N)N)NC2=O [[Val5;Asp10]GpTx-1(1-34)] (H-DCLGVMRKCDPDNDKCCRPNLVCSRTHKWCKYVF-NH2; disulfide 2-17, 9-23, 16-30) | > 10000 | 174 |
| CC[C@H](C)[C@@H]1NC(=O)[C@@H]2CSSC[C@@H]3NC(=O)[C@H](C(C)C)NC(=O)[C@H](CC(C)C)NC(=O)[C@H](CC(N)=O)NC(=O)[C@@H]4CCCN4C(=O)[C@H](CCCNC(=N)N)NC(=O)[C@H](CSSC[C@H](NC(=O)[C@@H](N)CC(=O)O)C(=O)N[C@@H](CC(C)C)C(=O)NCC(=O)N[C@@H](C(C)C)C(=O)N[C@@H](CCSC)C(=O)N[C@@H](CCCNC(=N)N)C(=O)N[C@@H](CCCCN)C(=O)N2)NC(=O)[C@H](CSSC[C@@H](C(=O)N[C@@H](CCCCN)C(=O)N[C@@H](Cc2ccc(O)cc2)C(=O)N[C@H](C(=O)N[C@@H](Cc2ccccc2)C(N)=O)C(C)C)NC(=O)[C@H](Cc2c[nH]c4ccccc24)NC(=O)[C@H](CCCCN)NC(=O)[C@H](Cc2c[nH]cn2)NC(=O)[C@H]([C@@H](C)O)NC(=O)[C@H](CCCNC(N)=O)NC(=O)[C@H](CO)NC3=O)NC(=O)[C@H](CCCCN)NC(=O)[C@H](CC(=O)O)NC(=O)[C@H](CC(N)=O)NC(=O)[C@H](CC(=O)O)NC(=O)[C@@H]2CCCN2C1=O [[Val5;Cit25]GpTx-1(1-34)] (H-DCLGVMRKCIPDNDKCCRPNLVCS[Cit]THKWCKYVF-NH2; disulfide 2-17, 9-23, 16-30) | > 10000 | 28 |
